Laboratory results taken from patent US8765433B2, “Alcohol dehydrogenases (ADH) useful for fermentive production of lower alkyl alcohols” (priority 2009, dated 2014).

Biological target: T1, Thermus sp. ATN1 ADH (TADH), SEQ ID NO: 33 (Thermus sp. ATN1, UniProt B2ZRE3)
T1 sequence (B2ZRE3 1-347): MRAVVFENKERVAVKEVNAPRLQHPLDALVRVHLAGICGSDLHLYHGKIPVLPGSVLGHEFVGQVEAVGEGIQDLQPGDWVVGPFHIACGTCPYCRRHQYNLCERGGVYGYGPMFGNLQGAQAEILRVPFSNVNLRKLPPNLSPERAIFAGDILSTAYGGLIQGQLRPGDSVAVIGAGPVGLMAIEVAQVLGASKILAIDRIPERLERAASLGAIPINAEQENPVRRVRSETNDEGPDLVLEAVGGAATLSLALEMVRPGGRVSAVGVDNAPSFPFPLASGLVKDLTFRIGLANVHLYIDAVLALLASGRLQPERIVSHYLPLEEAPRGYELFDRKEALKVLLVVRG
Assay: isobutyraldehyde reduction kinetics (A340, initial rates)
Type: biochemical
Conditions: relative to SadB

CC(C)C=O [isobutyraldehyde]
KM as a percentage of the same parameter for SadB: 130%
kcat as a percentage of the same parameter for SadB: 14%
kcat/KM as a percentage of the same parameter for SadB: 10%
